Patent US20250228835A1, “PYRIDINYLOXYPYRIDINES AND RELATED COMPOUNDS AND THEIR USE IN TREATING MEDICAL CONDITIONS” (Rectify Pharmaceuticals, Inc., priority 2024, published 2025)
Read-outs that look alike come from different tables or passages of the source.

Tests used:
ABCB4 WT = target: T1, ABCB4 WT (Homo sapiens, UniProt P21439); experiment: ABCB4 WT assay: HiBit protein expression; format: cell-based; settings: HEK-293 cells stably expressing HiBit-tagged ABCB4 WT; 24 h treatment; top concentration 30 μM; read-out: ABCB4 WT EC50, Emax
T1 construct: expressed in transfected cells
T1 sequence (P21439 whole entry): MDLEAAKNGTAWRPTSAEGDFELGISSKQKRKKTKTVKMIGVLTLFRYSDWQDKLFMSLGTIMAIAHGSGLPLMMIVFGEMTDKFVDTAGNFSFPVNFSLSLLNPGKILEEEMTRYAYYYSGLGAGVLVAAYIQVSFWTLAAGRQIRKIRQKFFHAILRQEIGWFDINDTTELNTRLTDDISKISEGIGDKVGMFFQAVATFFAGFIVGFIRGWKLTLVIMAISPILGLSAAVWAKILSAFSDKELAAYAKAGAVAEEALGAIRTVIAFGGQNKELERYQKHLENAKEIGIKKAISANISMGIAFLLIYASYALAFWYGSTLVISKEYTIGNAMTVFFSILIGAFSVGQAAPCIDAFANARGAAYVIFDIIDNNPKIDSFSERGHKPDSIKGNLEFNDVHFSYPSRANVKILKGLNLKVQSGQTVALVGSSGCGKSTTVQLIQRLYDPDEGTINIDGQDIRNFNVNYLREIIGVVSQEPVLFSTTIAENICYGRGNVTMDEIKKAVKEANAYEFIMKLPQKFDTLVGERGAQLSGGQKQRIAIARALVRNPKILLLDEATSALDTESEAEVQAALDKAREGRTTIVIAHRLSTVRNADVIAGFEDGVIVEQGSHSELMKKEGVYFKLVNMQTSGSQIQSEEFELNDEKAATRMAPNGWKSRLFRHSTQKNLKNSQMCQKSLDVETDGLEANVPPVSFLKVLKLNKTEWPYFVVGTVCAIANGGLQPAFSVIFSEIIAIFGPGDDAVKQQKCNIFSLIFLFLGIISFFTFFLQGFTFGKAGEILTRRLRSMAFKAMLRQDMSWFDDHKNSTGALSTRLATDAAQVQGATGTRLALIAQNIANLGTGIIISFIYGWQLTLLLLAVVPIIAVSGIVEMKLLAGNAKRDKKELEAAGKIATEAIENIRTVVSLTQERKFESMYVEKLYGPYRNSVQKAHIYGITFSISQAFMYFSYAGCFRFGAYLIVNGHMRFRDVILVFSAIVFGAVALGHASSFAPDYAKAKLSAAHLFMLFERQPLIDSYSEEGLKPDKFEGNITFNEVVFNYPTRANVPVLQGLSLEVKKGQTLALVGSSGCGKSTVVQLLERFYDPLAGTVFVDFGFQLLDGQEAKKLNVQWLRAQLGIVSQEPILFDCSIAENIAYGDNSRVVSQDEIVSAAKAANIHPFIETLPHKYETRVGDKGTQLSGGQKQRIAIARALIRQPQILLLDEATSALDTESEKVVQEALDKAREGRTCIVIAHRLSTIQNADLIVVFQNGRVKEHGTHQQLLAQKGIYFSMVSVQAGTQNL
How it was run: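 HEK-293 cells stably expressing HiBit-tagged human ABCB4 WT, treated 24 h at 37 °C with 11-dose 3-fold dilutions, top final 30 μM in 0.3% DMSO. HiBit lytic reagent luminescence read after 1 h at 25 °C; Emax and EC50 derived.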

ABCA4 P1380L = target: T2, ABCA4 P1380L (Homo sapiens, UniProt P78363, P1380L); experiment: A4 correction dose-response assay: ABCA4 P1380L HiBit protein expression; format: cell-based; settings: HEK-293 cells stably expressing HiBit-tagged ABCA4 P1380L, 24 h treatment, top concentration 30 μM
T2 construct: expressed in transfected cells
T2 sequence (P78363 whole entry P1380L): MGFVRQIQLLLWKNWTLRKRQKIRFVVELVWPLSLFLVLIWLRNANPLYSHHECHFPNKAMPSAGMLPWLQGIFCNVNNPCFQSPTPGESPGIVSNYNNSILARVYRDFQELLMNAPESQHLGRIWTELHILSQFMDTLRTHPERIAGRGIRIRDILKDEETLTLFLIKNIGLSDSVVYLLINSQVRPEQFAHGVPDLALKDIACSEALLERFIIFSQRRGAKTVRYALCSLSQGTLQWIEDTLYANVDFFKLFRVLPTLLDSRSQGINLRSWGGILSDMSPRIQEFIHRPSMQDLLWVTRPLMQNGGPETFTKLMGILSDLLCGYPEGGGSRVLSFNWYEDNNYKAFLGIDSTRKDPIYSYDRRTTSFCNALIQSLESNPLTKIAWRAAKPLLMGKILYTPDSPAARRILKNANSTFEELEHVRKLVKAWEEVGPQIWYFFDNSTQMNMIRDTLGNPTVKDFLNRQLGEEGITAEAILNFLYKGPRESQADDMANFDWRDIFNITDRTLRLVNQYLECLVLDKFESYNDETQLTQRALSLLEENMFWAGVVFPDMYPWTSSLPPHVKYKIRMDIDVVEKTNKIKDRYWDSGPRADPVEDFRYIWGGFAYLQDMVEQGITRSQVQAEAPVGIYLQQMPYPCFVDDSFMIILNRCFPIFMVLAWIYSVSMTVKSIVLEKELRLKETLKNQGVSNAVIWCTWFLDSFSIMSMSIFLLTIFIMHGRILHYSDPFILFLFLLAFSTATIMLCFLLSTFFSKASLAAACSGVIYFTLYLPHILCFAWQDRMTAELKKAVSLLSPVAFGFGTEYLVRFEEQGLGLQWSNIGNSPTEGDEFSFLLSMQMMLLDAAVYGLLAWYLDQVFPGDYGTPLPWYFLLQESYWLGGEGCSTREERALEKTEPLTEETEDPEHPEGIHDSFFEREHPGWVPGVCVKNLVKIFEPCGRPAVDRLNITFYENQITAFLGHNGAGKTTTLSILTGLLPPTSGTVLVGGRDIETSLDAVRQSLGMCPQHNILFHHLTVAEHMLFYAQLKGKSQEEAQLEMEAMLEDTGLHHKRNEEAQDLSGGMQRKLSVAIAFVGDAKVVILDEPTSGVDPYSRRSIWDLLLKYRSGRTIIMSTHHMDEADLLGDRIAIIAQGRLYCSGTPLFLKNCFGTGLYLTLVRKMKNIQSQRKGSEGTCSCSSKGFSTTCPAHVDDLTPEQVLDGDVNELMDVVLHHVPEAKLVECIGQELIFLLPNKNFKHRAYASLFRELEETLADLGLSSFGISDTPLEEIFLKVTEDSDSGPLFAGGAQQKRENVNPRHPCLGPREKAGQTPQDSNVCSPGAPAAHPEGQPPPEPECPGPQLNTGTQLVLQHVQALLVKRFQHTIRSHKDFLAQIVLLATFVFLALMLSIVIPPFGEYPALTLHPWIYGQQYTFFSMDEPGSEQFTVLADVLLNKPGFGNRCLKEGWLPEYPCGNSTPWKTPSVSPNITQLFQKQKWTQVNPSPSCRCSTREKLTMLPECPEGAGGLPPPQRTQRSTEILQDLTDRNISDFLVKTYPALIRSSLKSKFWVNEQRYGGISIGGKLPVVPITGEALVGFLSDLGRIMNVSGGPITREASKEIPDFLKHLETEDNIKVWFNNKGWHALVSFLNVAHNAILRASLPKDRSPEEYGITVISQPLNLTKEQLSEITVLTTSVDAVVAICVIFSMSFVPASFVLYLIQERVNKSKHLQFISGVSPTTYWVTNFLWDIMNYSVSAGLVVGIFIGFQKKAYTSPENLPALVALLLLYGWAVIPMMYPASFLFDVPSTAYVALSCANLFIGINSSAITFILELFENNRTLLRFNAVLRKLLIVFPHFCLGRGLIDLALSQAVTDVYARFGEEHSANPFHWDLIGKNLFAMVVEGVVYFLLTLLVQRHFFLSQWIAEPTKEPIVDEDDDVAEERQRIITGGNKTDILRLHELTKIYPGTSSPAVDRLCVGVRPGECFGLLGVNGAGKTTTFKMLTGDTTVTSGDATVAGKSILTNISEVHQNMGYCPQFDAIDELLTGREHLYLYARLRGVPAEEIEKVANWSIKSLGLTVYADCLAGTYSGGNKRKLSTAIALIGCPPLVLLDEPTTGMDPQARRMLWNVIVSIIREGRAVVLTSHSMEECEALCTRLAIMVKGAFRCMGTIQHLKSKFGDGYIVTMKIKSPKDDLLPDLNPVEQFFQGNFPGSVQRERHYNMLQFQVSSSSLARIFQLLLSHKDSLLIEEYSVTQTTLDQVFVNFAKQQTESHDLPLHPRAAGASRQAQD
How it was run: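 Cells transfected with HiBit-tagged human ABCA4 P1380L cDNA were treated for 24 h at 37°C with an eleven-point dilution series (top final 30 μM, 0.3% DMSO).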

[1] = read-out: ABCA4 P1380L EC50, Emax

EC50 (ABCB4 WT) | EC50 (ABCA4 P1380L; [1]) | EC50 (ABCA4 P1380L; ABCA4 P1380L EC50, Emax) | Structure (SMILES)
≥ 25 µM | 10 to 25 µM |  | Cc1cc(C)c(Oc2nc(N3CC4CC3CN4C(=O)C3CC3)ccc2NS(C)(=O)=O)c(C)c1 (single isomer, unassigned) [Compound I-18]
≥ 25 µM | > 25 µM |  | Cc1cc(C)c(Oc2nc(N3CC4CC3CN4C(=O)C3CC3)ccc2NS(C)(=O)=O)c(C)c1 (single isomer, unassigned) [Compound I-19]
1 to 10 µM | 10 to 25 µM |  | Cc1cc(C)c(Oc2nc(N3CCC(C#N)C3)ccc2NS(C)(=O)=O)c(C)c1 (single isomer, unassigned) [Compound I-261]
1 to 10 µM | 1 to 10 µM |  | Cc1cc(C)c(Oc2nc(N3CCC(C#N)C3)ccc2NS(C)(=O)=O)c(C)c1 (single isomer, unassigned) [Compound I-262]
≥ 25 µM | > 25 µM |  | Cc1cc(C)c(Oc2nc(N3CCN(C(=O)C4CC4)CC3)ccc2NS(C)(=O)=O)c(C2CC2)n1 [Compound I-20]
< 25 µM | > 25 µM |  | Cc1cc(C)c(Oc2nc(N3CCn4c(C)nnc4C3)ccc2NS(C)(=O)=O)c(C)c1 [Compound I-21]
10 to 25 µM | 10 to 25 µM |  | Cc1cc(C)c(Oc2nc(N3CCN(C(=O)C4COC4)CC3)ccc2NS(C)(=O)=O)c(C)c1 [Compound I-23]
< 1 µM | 1 to 10 µM |  | Cc1cc(C)c(Oc2nc(N3CCN(C(=O)C4CCC4)CC3)ccc2NS(C)(=O)=O)c(C)c1 [Compound I-24]
1 to 10 µM | > 25 µM |  | Cc1cc(C)c(Oc2nc(N3CCC4(CN(C(=O)C5CC5)C4)C3)ccc2NS(C)(=O)=O)c(C)c1 [Compound I-25]
1 to 10 µM | > 25 µM |  | Cc1cc(C)c(Oc2nc(N3CCN(S(C)(=O)=O)CC3)ccc2NS(C)(=O)=O)c(C)c1 [Compound I-26]
10 to 25 µM | 1 to 10 µM |  | CNC(=O)N1CCN(c2ccc(NS(C)(=O)=O)c(Oc3c(C)cc(C)cc3C)n2)CC1 [Compound I-27]
1 to 10 µM | 1 to 10 µM |  | Cc1cc(C2CC2)nc(C)c1Oc1nc(N2CCN(C(=O)C3CC3)CC2)ccc1NS(C)(=O)=O [Compound I-28]
≥ 25 µM | > 25 µM |  | Cc1cc(C)c(Oc2nc(-c3cncc(Cl)c3)ccc2NS(=O)(=O)C(C)C)c(C)c1 [Compound I-29]
1 to 10 µM | < 1 µM |  | Cc1cc(C)c(Oc2nc(N3CCn4c(cnc4C)C3)ccc2NS(C)(=O)=O)c(C)c1 [Compound I-30]
≥ 25 µM | > 25 µM |  | Cc1cc(C)c(Oc2nc(N3CC4(CCN(C(=O)C5CC5)C4)C3)ccc2NS(C)(=O)=O)c(C)c1 [Compound I-31]
≥ 25 µM | 1 to 10 µM |  | Cc1cc(C)c(Oc2nc(N3CCN(C(=O)OC(C)C)CC3)ccc2NS(C)(=O)=O)c(C)c1 [Compound I-32]
10 to 25 µM | > 25 µM |  | Cc1cc(C)c(Oc2nc(N3CCN(C(=O)N(C)C)CC3)ccc2NS(C)(=O)=O)c(C)c1 [Compound I-33]
1 to 10 µM | 10 to 25 µM |  | Cc1cc(C)c(Oc2nc(N3CCN(C(=O)C(C)(C)C)CC3)ccc2NS(C)(=O)=O)c(C)c1 [Compound I-34]
≥ 25 µM | < 1 µM |  | Cc1cc(C)c(Oc2nc(-c3cnc(C#N)c(Cl)c3)ccc2NS(C)(=O)=O)c(C)c1 [Compound I-36]

EC50 (ABCB4 WT) | EC50 (ABCA4 P1380L; [1]) | EC50 (ABCA4 P1380L; ABCA4 P1380L EC50, Emax) | Structure (SMILES)
< 1 µM | < 1 µM |  | Cc1cc(C2CC2)nc(C)c1Oc1nc(-c2cncc(Cl)c2)ccc1NS(C)(=O)=O [Compound I-37]
≥ 25 µM | > 25 µM |  | Cc1cc(C)c(Oc2nc(N3CC4(CN(C(=O)C5CC5)C4)C3)ccc2NS(C)(=O)=O)c(C)c1 [Compound I-38]
< 1 µM | < 1 µM |  | Cc1cc(C)c(Oc2nc(-c3cncc(C#N)c3)ccc2NS(C)(=O)=O)c(C)c1 [Compound I-39]
< 1 µM | < 1 µM |  | Cc1cc(C)c(Oc2nc(-c3cncc(Cl)c3)ccc2NS(C)(=O)=O)c(C2CC2)n1 [Compound I-40]
≥ 25 µM | < 1 µM |  | Cc1cc(C)c(Oc2nc(-c3cncc(Cl)c3)ccc2NS(=O)(=O)C2COC2)c(C)c1 [Compound I-41]
< 25 µM | 1 to 10 µM |  | Cc1cc(C)c(Oc2nc(-c3cncc(Cl)c3)ccc2NS(=O)(=O)C2CC2)c(C)n1 [Compound I-238]
< 25 µM | < 1 µM |  | Cc1cc(C)c(Oc2nc(-c3ccnc(C#N)c3)ccc2NS(C)(=O)=O)c(C)n1 [Compound I-239]
< 1 µM | < 25 µM |  | Cc1cc(C(F)(F)F)nc(C)c1Oc1nc(-c2cncc(C#N)c2)ccc1NS(C)(=O)=O [Compound I-240]
10 to 25 µM | > 25 µM |  | Cc1cc(C)c(Oc2nc(-c3cccc(C#N)n3)ccc2NS(C)(=O)=O)c(C)n1 [Compound I-241]
1 to 10 µM | 1 to 10 µM |  | CCCS(=O)(=O)Nc1ccc(-c2cncc(C#N)c2)nc1Oc1c(C)cc(C)nc1C [Compound I-242]
< 1 µM | < 1 µM |  | Cc1cc(C)c(Oc2nc(-c3cncc(C#N)c3)ccc2NS(=O)(=O)C2CCC2)c(C)n1 [Compound I-243]
≥ 25 µM | 10 to 25 µM |  | Cc1cc(C)c(Oc2nc(N3CCC(C#N)CC3)ccc2NS(C)(=O)=O)c(C)c1 [Compound I-244]
1 to 10 µM | 1 to 10 µM |  | Cc1cc(C)c(Oc2nc(-c3cncc(C#N)c3)ccc2S(=N)(=O)C2CC2)c(C)c1 (centres unmarked) [Compound I-245]
< 25 µM | < 1 µM |  | Cc1cc(C)c(Oc2nc(-c3cncc(Cl)c3)ncc2NS(C)(=O)=O)c(C)n1 [Compound I-246]
< 1 µM | < 1 µM |  | CCS(=O)(=O)Nc1ccc(-c2cncc(C#N)c2)nc1Oc1c(C)cc(C)nc1C [Compound I-247]
1 to 10 µM | 1 to 10 µM |  | Cc1cc(C)c(Oc2nc(-c3cncc(C#N)c3)ccc2S(=N)(=O)C2CC2)c(C)n1 (centres unmarked) [Compound I-248]
< 25 µM | > 25 µM |  | Cc1cc(C)c(Oc2nc(-c3cncc(C#N)c3)ccc2S(C)(=N)=O)c(C)n1 (centres unmarked) [Compound I-249]
≥ 25 µM | > 25 µM |  | Cc1cnc(Oc2nc(-c3cncc(C#N)c3)ccc2NS(C)(=O)=O)c(C)c1 [Compound I-250]
≥ 25 µM | > 25 µM |  | Cc1cc(C2CC2)nc(C)c1Oc1nc(-c2cncc(C#N)c2)ccc1S(C)(=N)=O (centres unmarked) [Compound I-251]

EC50 (ABCB4 WT) | EC50 (ABCA4 P1380L; [1]) | EC50 (ABCA4 P1380L; ABCA4 P1380L EC50, Emax) | Structure (SMILES)
≥ 25 µM | < 1 µM |  | Cc1cc(C2CC2)nc(C)c1Oc1nc(-c2cncc(C#N)c2)ccc1NS(=O)(=O)C1CCC1 [Compound I-252]
1 to 10 µM | < 25 µM |  | Cc1cc(C)c(Oc2nc(-c3cncc(C#N)c3)ccc2NS(=O)(=O)C2CCC2)c(C)c1 [Compound I-253]
< 25 µM | < 1 µM |  | Cc1cc(C2CC2)nc(C)c1Oc1nc(-n2cnc(C#N)c2)ccc1NS(C)(=O)=O [Compound I-254]
≥ 25 µM | > 25 µM |  | Cc1cc(C2CC2)nc(C)c1Oc1nc(-n2ccc(C#N)n2)ccc1NS(C)(=O)=O [Compound I-255]
< 1 µM | > 25 µM |  | Cc1cc(C2CC2)nc(C)c1Oc1nc(-n2cc(C#N)cn2)ccc1NS(C)(=O)=O [Compound I-256]
≥ 25 µM | < 25 µM |  | Cc1cc(C)c(Oc2nc(-n3ccc(C#N)n3)ccc2NS(C)(=O)=O)c(C)c1 [Compound I-257]
< 25 µM |  | 1 to 10 µM | Cc1cc(C)c(Oc2nc(-c3cncc(C#N)c3)ccc2S(N)(=O)=O)c(C)n1 [Compound I-258]
≥ 25 µM | < 25 µM |  | Cc1cc(C)c(Oc2nc(-c3cncc(C#N)c3)cnc2NS(C)(=O)=O)c(C)n1 [Compound I-259]
≥ 25 µM | > 25 µM |  | Cc1cc(C)c(Oc2nc(-c3cncc(Cl)c3)cnc2NS(C)(=O)=O)c(C)n1 [Compound I-260]
1 to 10 µM | 1 to 10 µM |  | Cc1cc(C2CC2)nc(C)c1Oc1nc(-c2cncc(S(C)(=O)=O)c2)ccc1NS(C)(=O)=O [Compound I-263]
< 1 µM | < 1 µM |  | Cc1cc(C2CC2)nc(C)c1Oc1nc(-c2cncc(C#N)c2)ccc1NS(=O)(=O)C1CC1 [Compound I-264]
< 1 µM | 1 to 10 µM |  | CNS(=O)(=O)c1ccc(-c2cncc(C#N)c2)nc1Oc1c(C)cc(C)nc1C [Compound I-265]
< 1 µM | < 1 µM |  | Cc1cc(C)c(Oc2nc(-c3cncc(C#N)c3)ccc2NS(=O)(=O)C2CC2)c(C)n1 [Compound I-266]
< 1 µM | < 25 µM |  | Cc1cc(C)c(Oc2nc(-c3cncc(C#N)c3)ccc2NS(=O)(=O)C2COC2)c(C)c1 [Compound I-267]
< 1 µM | < 1 µM |  | Cc1cc(C)c(Oc2nc(-c3cncc(C#N)c3)ccc2NS(C)(=O)=O)c(C2CC2)n1 [Compound I-268]
< 1 µM | 1 to 10 µM |  | Cc1cc(C)c(Oc2nc(-c3ccc(C#N)nc3C)ccc2NS(C)(=O)=O)c(C)n1 [Compound I-269]
< 25 µM | < 25 µM |  | Cc1cc(C)c(Oc2nc(-c3cc(C#N)cnc3C)ccc2NS(C)(=O)=O)c(C)n1 [Compound I-270]
1 to 10 µM | < 1 µM |  | Cc1cc(C2CC2)cc(C)c1Oc1nc(-c2cncc(C#N)c2)ccc1NS(C)(=O)=O [Compound I-271]

Structure (SMILES) | EC50 (ABCB4 WT) | EC50 (ABCA4 P1380L; [1]) | EC50 (ABCA4 P1380L; ABCA4 P1380L EC50, Emax)
Cc1cc(C)c(Oc2nc(N3CC4CC(C3)N4C(=O)C3CC3)ccc2NS(C)(=O)=O)c(C)c1 [Compound I-22] | 1 to 10 µM | 1 to 10 µM | 
Cc1cc(C)c(Oc2nc(N3C4CC3CN(C(=O)C3CC3)C4)ccc2NS(C)(=O)=O)c(C)c1 [Compound I-35] | ≥ 25 µM | > 25 µM | 
